Laboratory results as given in US20230041621A1, “SSTR5 ANTAGONISTS” (Kallyope, Inc., priority 2019, published 2023).

Assay: Oral bioavailability after oral dosing in rat
Settings: in vivo, Sprague Dawley rats, IV 1 mg/kg, PO 5 mg/kg, IV vehicle 5% DMSO + 30% PEG400 + 65% water, PO vehicle 0.5% methyl cellulose in water
Description: Oral bioavailability of the compounds was determined in Sprague Dawley rats. The table below summarizes the results. Each compound was dosed intravenously (IV) at 1 mg/kg and orally (PO) 5 mg/kg using the respective vehicles listed below. The compounds display low (<10%) oral bioavailability (F %).

## CCOc1cc(-c2ccc(F)cc2)c(C2CC2)cc1CN1CCC2(CC1)CN(c1ccc(S(=O)(=O)O)cc1)C(=O)O2 [Compound 1, 4-(8-((2-cyclopropyl-5-ethoxy-4′-fluoro-[1,1′-biphenyl]-4-yl)methyl)-2-oxo-1-oxa-3,8-diazaspiro[4.5]decan-3-yl)benzenesulfonic acid]
  bioavailability: 4.6%

## CCOc1cc(-c2ccc(F)cc2)c(C2CC2)cc1CN1CCC2(CC1)CC(=O)N(c1ccc(S(=O)(=O)O)cc1)C2 [Compound 2, 4-(8-((2-cyclopropyl-5-ethoxy-4′-fluoro-[1,1′-biphenyl]-4-yl)methyl)-3-oxo-2,8-diazaspiro[4.5]decan-2-yl)benzenesulfonic acid]
  bioavailability: 2.1%

## CCOc1cc(-c2ccc(F)cn2)c(C2CC2)cc1CN1CCC2(CC1)CN(c1ccc(S(=O)(=O)O)cc1)C(=O)O2 [Compound 3, 4-(8-(5-cyclopropyl-2-ethoxy-4-(5-fluoropyridin-2-yl)benzyl)-2-oxo-1-oxa-3,8-diazaspiro[4.5]decan-3-yl)benzenesulfonic acid]
  bioavailability: 1.2%
